Results taken from paper PMC5666424, “Marine-Derived 2-Aminoimidazolone Alkaloids. Leucettamine B-Related Polyandrocarpamines Inhibit Mammalian and Protozoan DYRK & CLK Kinases” (Marine Drugs, 2017).

How the values were obtained:
Experiment in all cases: KinomeScan
Format in all cases: binding
Settings in all cases: 1 μM
[1] = molecular target: T1, ACVR1 (Homo sapiens, UniProt Q04771)
T1 construct: purchased DiscoverX (KINOMEscan)

[2] = molecular target: T2, ASK1 (Homo sapiens, UniProt Q99683)
T2 construct: purchased DiscoverX (KINOMEscan)

[3] = molecular target: T3, ASK2 (Homo sapiens, UniProt O95382)
T3 construct: purchased DiscoverX (KINOMEscan)

[4] = molecular target: T4, CAMK1 (Homo sapiens, UniProt Q14012)
T4 construct: purchased DiscoverX (KINOMEscan)

[5] = molecular target: T5, CDK5 (Homo sapiens, UniProt Q00535)
T5 construct: purchased DiscoverX (KINOMEscan)

[6] = molecular target: T6, CSK (Homo sapiens, UniProt P41240)
T6 construct: purchased DiscoverX (KINOMEscan)

[7] = molecular target: T7, DAPK3 (Homo sapiens, UniProt O43293)
T7 construct: purchased DiscoverX (KINOMEscan)

[8] = molecular target: T8, DDR2 (Homo sapiens, UniProt Q16832)
T8 construct: purchased DiscoverX (KINOMEscan)

[9] = molecular target: T9, DMPK (Homo sapiens, UniProt Q09013)
T9 construct: purchased DiscoverX (KINOMEscan)

[10] = molecular target: T10, EPHA1 (Homo sapiens, UniProt P21709)
T10 construct: purchased DiscoverX (KINOMEscan)

[11] = molecular target: T11, FGFR3(G697C) (Homo sapiens, UniProt P22607, G697C)
T11 construct: purchased DiscoverX (KINOMEscan)

[12] = molecular target: T12, FLT3 (Homo sapiens, UniProt P36888)
T12 construct: purchased DiscoverX (KINOMEscan)

[13] = molecular target: T13, FLT3(D835H) (Homo sapiens, UniProt P36888, D835H)
T13 construct: purchased DiscoverX (KINOMEscan)

[14] = molecular target: T14, FYN (Homo sapiens, UniProt P06241)
T14 construct: purchased DiscoverX (KINOMEscan)

[15] = molecular target: T15, HIPK3 (Homo sapiens, UniProt Q9H422)
T15 construct: purchased DiscoverX (KINOMEscan)

[16] = molecular target: T16, IGF1R (Homo sapiens, UniProt P08069)
T16 construct: purchased DiscoverX (KINOMEscan)

[17] = molecular target: T17, JAK3(JH1domain-catalytic) (Homo sapiens, UniProt P52333)
T17 construct: JAK3(JH1domain-catalytic); purchased DiscoverX (KINOMEscan)

[18] = molecular target: T18, JNK1 (Homo sapiens, UniProt P45983)
T18 construct: purchased DiscoverX (KINOMEscan)

[19] = molecular target: T19, KIT (Homo sapiens, UniProt P10721)
T19 construct: purchased DiscoverX (KINOMEscan)

[20] = molecular target: T20, KIT(V559D,V654A) (Homo sapiens, UniProt P10721, V559D/V654A)
T20 construct: purchased DiscoverX (KINOMEscan)

[21] = molecular target: T21, LRRK2 (Homo sapiens, UniProt Q5S007)
T21 construct: purchased DiscoverX (KINOMEscan)

[22] = molecular target: T22, MAPKAPK5 (Homo sapiens, UniProt Q8IW41)
T22 construct: purchased DiscoverX (KINOMEscan)

[23] = molecular target: T23, MET(M1250T) (Homo sapiens, UniProt P08581, M1250T)
T23 construct: purchased DiscoverX (KINOMEscan)

[24] = molecular target: T24, MINK (Homo sapiens, UniProt Q8N4C8)
T24 construct: purchased DiscoverX (KINOMEscan)

[25] = molecular target: T25, MKNK1 (Homo sapiens, UniProt Q9BUB5)
T25 construct: purchased DiscoverX (KINOMEscan)

[26] = molecular target: T26, MLCK (Homo sapiens, UniProt Q32MK0)
T26 construct: purchased DiscoverX (KINOMEscan)

[27] = molecular target: T27, MST1 (Homo sapiens, UniProt Q13043)
T27 construct: purchased DiscoverX (KINOMEscan)

[28] = molecular target: T28, MST1R (Homo sapiens, UniProt Q04912)
T28 construct: purchased DiscoverX (KINOMEscan)

[29] = molecular target: T29, MST3 (Homo sapiens, UniProt Q9Y6E0)
T29 construct: purchased DiscoverX (KINOMEscan)

[30] = molecular target: T30, TAOK1 (Homo sapiens, UniProt Q7L7X3)
T30 construct: purchased DiscoverX (KINOMEscan)

[31] = molecular target: T31, TAOK2 (Homo sapiens, UniProt Q9UL54)
T31 construct: purchased DiscoverX (KINOMEscan)

[32] = molecular target: T32, TGFBR2 (Homo sapiens, UniProt P37173)
T32 construct: purchased DiscoverX (KINOMEscan)

[33] = molecular target: T33, TNK1 (Homo sapiens, UniProt Q13470)
T33 construct: purchased DiscoverX (KINOMEscan)

[34] = molecular target: T34, TRKC (Homo sapiens, UniProt Q16288)
T34 construct: purchased DiscoverX (KINOMEscan)

[35] = molecular target: T35, TXK (Homo sapiens, UniProt P42681)
T35 construct: purchased DiscoverX (KINOMEscan)

[36] = molecular target: T36, ULK1 (Homo sapiens, UniProt O75385)
T36 construct: purchased DiscoverX (KINOMEscan)

[37] = molecular target: T37, WEE1 (Homo sapiens, UniProt P30291)
T37 construct: purchased DiscoverX (KINOMEscan)

T26 sequence (Q32MK0 whole entry): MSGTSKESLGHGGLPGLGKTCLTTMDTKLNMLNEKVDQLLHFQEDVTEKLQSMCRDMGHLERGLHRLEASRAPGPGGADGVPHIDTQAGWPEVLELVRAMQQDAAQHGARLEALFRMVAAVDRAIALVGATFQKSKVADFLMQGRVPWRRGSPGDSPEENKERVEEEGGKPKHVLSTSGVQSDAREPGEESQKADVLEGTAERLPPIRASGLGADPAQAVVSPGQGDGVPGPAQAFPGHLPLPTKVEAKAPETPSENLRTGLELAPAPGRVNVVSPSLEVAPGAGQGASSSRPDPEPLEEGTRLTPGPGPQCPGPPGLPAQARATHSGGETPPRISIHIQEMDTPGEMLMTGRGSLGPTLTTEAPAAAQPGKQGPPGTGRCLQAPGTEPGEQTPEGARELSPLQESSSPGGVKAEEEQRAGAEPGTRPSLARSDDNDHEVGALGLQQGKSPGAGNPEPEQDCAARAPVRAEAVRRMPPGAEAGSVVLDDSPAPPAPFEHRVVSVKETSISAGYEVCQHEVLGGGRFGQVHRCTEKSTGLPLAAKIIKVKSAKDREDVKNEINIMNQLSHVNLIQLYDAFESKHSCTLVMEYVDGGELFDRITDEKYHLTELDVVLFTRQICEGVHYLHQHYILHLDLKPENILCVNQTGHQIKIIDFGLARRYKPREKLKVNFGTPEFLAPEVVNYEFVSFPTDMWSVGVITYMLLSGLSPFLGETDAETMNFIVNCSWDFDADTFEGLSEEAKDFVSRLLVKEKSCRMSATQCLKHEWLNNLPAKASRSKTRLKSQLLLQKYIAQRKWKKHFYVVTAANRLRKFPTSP
T3 sequence (O95382 whole entry): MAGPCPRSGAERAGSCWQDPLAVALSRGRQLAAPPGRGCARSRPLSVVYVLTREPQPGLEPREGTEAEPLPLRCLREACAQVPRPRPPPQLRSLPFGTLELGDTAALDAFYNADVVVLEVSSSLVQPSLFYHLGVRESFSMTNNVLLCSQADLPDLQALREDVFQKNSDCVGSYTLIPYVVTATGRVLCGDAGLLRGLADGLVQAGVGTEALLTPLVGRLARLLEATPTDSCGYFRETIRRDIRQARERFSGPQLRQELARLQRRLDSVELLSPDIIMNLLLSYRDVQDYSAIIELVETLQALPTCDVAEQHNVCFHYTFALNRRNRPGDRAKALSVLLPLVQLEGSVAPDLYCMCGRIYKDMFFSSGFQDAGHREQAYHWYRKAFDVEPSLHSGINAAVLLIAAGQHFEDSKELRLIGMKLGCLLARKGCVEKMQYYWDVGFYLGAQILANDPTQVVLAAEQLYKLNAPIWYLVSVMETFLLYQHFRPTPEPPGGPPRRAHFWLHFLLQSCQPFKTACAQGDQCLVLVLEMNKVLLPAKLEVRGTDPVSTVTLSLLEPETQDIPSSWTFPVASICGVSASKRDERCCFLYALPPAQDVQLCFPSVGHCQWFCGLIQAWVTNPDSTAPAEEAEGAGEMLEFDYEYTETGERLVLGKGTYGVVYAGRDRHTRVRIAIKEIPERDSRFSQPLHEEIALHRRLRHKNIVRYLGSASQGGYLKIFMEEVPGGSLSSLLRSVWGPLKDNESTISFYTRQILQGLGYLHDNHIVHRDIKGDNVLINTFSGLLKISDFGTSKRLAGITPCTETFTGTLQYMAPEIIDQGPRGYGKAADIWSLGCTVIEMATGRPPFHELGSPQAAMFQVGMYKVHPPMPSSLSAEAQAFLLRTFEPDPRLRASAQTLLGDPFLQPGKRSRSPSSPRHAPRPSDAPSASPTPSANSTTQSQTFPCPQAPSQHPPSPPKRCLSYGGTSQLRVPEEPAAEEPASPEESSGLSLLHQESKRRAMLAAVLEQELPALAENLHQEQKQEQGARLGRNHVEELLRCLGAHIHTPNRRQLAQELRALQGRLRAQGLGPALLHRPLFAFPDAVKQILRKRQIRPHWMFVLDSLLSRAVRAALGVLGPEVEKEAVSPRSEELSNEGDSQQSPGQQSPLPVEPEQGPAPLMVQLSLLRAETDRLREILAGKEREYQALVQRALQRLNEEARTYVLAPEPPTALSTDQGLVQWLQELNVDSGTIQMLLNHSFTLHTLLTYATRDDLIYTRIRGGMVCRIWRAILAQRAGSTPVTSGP
T25 sequence (Q9BUB5 whole entry): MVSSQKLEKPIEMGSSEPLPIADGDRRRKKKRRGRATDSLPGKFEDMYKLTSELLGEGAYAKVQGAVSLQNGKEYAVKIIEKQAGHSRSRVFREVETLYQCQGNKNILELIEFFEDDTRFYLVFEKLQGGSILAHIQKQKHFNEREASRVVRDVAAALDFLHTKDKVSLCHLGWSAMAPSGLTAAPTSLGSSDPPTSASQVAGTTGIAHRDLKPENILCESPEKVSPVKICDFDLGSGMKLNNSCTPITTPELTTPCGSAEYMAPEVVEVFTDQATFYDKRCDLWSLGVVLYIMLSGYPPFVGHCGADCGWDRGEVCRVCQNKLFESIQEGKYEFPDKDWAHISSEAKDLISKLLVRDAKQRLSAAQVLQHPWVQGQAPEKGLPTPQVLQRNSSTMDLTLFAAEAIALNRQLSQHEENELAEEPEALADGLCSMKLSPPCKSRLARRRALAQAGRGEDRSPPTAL
T2 sequence (Q99683 whole entry): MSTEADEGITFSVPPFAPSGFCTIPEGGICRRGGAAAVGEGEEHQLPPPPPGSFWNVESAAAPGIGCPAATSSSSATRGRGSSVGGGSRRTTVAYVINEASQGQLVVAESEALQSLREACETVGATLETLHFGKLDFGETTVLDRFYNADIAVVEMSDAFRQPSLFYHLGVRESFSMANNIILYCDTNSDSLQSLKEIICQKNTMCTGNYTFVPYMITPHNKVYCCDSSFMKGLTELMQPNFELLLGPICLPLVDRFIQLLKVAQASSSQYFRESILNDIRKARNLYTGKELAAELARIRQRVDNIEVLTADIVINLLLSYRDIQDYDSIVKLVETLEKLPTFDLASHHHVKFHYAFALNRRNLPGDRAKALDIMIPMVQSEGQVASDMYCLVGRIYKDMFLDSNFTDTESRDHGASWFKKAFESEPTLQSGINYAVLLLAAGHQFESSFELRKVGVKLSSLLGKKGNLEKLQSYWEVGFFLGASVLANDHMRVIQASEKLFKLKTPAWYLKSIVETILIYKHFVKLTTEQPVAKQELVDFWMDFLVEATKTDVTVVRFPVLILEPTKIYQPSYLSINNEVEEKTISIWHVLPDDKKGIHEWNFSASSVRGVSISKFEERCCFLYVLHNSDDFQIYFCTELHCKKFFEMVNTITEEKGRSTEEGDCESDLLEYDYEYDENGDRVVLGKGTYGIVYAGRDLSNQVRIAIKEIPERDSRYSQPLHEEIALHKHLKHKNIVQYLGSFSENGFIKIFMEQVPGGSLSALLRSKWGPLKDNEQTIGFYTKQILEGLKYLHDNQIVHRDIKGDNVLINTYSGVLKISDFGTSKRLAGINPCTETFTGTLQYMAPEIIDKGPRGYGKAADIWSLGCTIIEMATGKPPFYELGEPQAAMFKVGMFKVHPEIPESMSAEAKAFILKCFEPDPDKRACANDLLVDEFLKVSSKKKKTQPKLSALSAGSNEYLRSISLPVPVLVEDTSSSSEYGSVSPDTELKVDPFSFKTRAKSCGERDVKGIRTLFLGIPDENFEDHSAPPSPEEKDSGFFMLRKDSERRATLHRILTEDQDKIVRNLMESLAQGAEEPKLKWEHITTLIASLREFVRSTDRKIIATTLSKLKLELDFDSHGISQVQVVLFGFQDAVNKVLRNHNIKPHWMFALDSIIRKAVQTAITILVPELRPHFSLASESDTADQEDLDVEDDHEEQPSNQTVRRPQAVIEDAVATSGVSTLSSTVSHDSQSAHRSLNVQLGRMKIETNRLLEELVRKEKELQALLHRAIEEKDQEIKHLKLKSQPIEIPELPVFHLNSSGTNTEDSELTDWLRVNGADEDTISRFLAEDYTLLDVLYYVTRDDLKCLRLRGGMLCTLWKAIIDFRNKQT
T35 sequence (P42681 whole entry): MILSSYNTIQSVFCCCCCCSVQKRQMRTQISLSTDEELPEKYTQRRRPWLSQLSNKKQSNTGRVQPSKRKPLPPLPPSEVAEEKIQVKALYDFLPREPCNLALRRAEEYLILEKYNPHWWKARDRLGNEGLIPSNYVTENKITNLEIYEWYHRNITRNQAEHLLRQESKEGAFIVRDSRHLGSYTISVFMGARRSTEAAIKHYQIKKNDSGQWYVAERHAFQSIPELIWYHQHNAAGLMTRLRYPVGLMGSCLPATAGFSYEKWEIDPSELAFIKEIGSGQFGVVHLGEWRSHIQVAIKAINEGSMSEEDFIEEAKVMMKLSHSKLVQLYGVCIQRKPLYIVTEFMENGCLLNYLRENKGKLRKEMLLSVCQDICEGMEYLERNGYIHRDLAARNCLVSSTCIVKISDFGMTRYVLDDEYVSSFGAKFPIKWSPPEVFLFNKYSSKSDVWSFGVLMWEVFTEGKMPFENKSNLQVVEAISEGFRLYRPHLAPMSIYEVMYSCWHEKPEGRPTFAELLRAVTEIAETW
T18 sequence (P45983 whole entry): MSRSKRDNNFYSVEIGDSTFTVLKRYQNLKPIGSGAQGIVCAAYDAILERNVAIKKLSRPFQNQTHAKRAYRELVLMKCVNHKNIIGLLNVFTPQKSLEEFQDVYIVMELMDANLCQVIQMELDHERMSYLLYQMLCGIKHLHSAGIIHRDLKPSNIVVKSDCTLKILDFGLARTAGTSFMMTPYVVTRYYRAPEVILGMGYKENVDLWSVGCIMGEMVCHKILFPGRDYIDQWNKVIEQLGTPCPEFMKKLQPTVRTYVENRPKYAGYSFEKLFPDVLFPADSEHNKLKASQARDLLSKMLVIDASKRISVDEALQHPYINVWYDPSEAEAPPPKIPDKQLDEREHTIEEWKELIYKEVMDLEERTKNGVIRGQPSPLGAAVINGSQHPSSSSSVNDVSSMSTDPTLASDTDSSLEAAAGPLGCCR

Question: With `COc1cc(/C=C2\N=C(N)NC2=O)ccc1O` [Polyandrocarpamine A] as the molecule, how does the Score [1] read?
Answer: 100

Question: What about the Score [2] of the same molecule?
Answer: 100

Question: What about the Score [3] of the same molecule?
Answer: 100

Question: What about the Score [4] of the same molecule?
Answer: 100

Question: And the Score [5]?
Answer: 100

Question: And the Score [6]?
Answer: 100

Question: What about the Score [7] of the same molecule?
Answer: 50

Question: And the Score [8]?
Answer: 69

Question: What about the Score [9] of the same molecule?
Answer: 100

Question: And the Score [10]?
Answer: 100

Question: And the Score [11]?
Answer: 83

Question: What about the Score [12] of the same molecule?
Answer: 100

Question: What about the Score [13] of the same molecule?
Answer: 94

Question: And the Score [14]?
Answer: 100

Question: What about the Score [15] of the same molecule?
Answer: 19

Question: What about the Score [16] of the same molecule?
Answer: 100

Question: And the Score [17]?
Answer: 84

Question: And the Score [18]?
Answer: 100

Question: And the Score [19]?
Answer: 87

Question: What about the Score [20] of the same molecule?
Answer: 100

Question: And the Score [21]?
Answer: 100

Question: And the Score [22]?
Answer: 100

Question: What about the Score [23] of the same molecule?
Answer: 97

Question: What about the Score [24] of the same molecule?
Answer: 100

Question: What about the Score [25] of the same molecule?
Answer: 63

Question: What about the Score [26] of the same molecule?
Answer: 100

Question: And the Score [27]?
Answer: 70

Question: And the Score [28]?
Answer: 100

Question: What about the Score [29] of the same molecule?
Answer: 100

Question: And the Score [30]?
Answer: 76

Question: And the Score [31]?
Answer: 100

Question: What about the Score [32] of the same molecule?
Answer: 100

Question: And the Score [33]?
Answer: 100

Question: What about the Score [34] of the same molecule?
Answer: 82

Question: What about the Score [35] of the same molecule?
Answer: 100

Question: And the Score [36]?
Answer: 94

Question: And the Score [37]?
Answer: 100
